Converted amounts (≈) assume the structure as drawn.
Legend:
[1] = tested on: HCT-116; assay: cells; details: Homo sapiens, HCT-116, 72 h
Description: Antiproliferative activity against human HCT-116 cells incubated for 72 hrs by MTT assay

[2] = target: T1, Glutaminase kidney isoform, mitochondrial (Homo sapiens, UniProt O94925); assay: Inhibition of GLS1 (unknown origin) preincubated for 10 mins followed by glutamine addition measured after 60 mins
T1 sequence (O94925 whole entry): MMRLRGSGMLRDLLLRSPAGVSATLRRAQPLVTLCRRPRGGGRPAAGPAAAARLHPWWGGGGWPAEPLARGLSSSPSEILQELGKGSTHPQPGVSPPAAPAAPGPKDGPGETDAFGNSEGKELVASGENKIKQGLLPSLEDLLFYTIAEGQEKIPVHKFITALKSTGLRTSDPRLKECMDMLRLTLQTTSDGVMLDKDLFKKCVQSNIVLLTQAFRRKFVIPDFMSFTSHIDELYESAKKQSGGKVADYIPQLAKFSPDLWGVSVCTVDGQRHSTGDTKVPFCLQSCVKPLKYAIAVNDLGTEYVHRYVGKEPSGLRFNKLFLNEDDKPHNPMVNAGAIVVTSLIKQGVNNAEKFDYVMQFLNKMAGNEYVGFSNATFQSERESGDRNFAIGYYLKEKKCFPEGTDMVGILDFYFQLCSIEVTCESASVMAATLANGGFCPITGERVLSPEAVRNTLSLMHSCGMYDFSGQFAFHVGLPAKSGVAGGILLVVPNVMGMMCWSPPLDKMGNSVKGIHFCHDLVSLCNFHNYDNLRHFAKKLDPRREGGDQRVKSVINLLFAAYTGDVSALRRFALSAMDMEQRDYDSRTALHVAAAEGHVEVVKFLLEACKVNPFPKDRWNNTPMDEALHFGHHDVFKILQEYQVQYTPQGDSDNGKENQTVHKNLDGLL

[3] = Intrinsic aqueous solubility of the compound in PBS buffer at pH 7.4 measured after 72 hrs by LC-MS analysis; type: physicochemical; details: read-out: Intrinsic_solubility
[4] = Metabolic stability in human liver microsomes assessed as half life by LC-MS/MS analysis; type: ADME, Microsome
[5] = Metabolic stability in human liver microsomes assessed as clearance measured upto 120 mins by LC-MS/MS analysis; type: ADME, Microsome; details: read-out: CLH
[6] = target: T2, Glutaminase kidney isoform, mitochondrial (Homo sapiens) (UniProt O94925)
T2 sequence (whole entry): T1 sequence (O94925 whole entry)
Description: Stabilization of GLS1 (unknown origin) assessed as change in melting temperature by protein thermal assay

[7] = tested on: HCT-116; assay: Antitumor activity against human HCT-116 cells xenografted in BALB/c nude mouse assessed as tumor growth inhibition at 100 mg/kg, ip for 20 days relative to control; type: functional; details: Mus musculus, HCT-116, 480 h, time 20 day, read-out: TGI

Compound	IC50 [1] [µM]	IC50 [2] [µM]	further results
CCCCCOc1cccc(CC(=O)Nc2ccc(CCCCc3nnc(NC(=O)CCCC)s3)nn2)c1	2.18	0.024	–
CCCCC(=O)Nc1nnc(CCCCc2ccc(NC(=O)Cc3cccc(OC)c3)nn2)s1	2.46	0.19	–
CCCCCCOc1cccc(CC(=O)Nc2ccc(CCCCc3nnc(NC(=O)C4CC(F)(F)C4)s3)nn2)c1	1.23	0.024	solubility at 72 h [3]: 4.1 µg/mL (≈ 6.99 µM)
C=CCCOc1cccc(CC(=O)Nc2nnc(CCCCc3ccc(NC(=O)CC=C)nn3)s2)c1	24.9	> 5	–
C#CCCC(=O)Nc1nnc(CCCCc2ccc(NC(=O)Cc3cccc(OCCC=C)c3)nn2)s1	2.25	0.29	–
CCCCC(=O)Nc1nnc(CCCCc2ccc(NC(=O)Cc3cccc(N)c3)nn2)s1	–	0.52	–
C=CCCCOc1cccc(CC(=O)Nc2nnc(CCCCc3ccc(NC(=O)CCC=C)nn3)s2)c1	3.7	0.036	–
C=CCCCOc1cccc(CC(=O)Nc2nnc(CCCCc3ccc(NC(=O)CC=C)nn3)s2)c1	29.4	> 5	–
C=CCCCCOc1cccc(CC(=O)Nc2nnc(CCCCc3ccc(NC(=O)CCC=C)nn3)s2)c1	0.66	0.034	–
CCCCCCCOc1cccc(CC(=O)Nc2ccc(CCCCc3nnc(NC(=O)CCCC)s3)nn2)c1	1.96	0.017	–
C=CCCCOc1cccc(CC(=O)Nc2ccc(CCCCc3nnc(NC(=O)CCC=C)s3)nn2)c1	0.92	0.079	–
C#CCCC(=O)Nc1nnc(CCCCc2ccc(NC(=O)Cc3cccc(OC(=O)CCC#C)c3)nn2)s1	5.26	0.39	–
C=CCCOc1cccc(CC(=O)Nc2ccc(CCCCc3nnc(NC(=O)CC=C)s3)nn2)c1	1.6	0.11	–
CCCCCCCCOc1cccc(CC(=O)Nc2ccc(CCCCc3nnc(NC(=O)CCCC)s3)nn2)c1	0.21	0.017	–
CCCCCNc1cccc(CC(=O)Nc2ccc(CCCCc3nnc(NC(=O)CCCC)s3)nn2)c1	–	> 20	–
C=CCCCCOc1cccc(CC(=O)Nc2ccc(CCCCc3nnc(NC(=O)C4CC(F)(F)C4)s3)nn2)c1	1.68	0.032	half-life [4]: 87.8 min; microsomal CLint [5]: 39.5 µL/min/mg
CCCCOc1cccc(CC(=O)Nc2ccc(CCCCc3nnc(NC(=O)C4CC(F)(F)C4)s3)nn2)c1	1.86	0.068	solubility at 72 h [3]: 6.23 µg/mL (≈ 11.2 µM)
CCCCNc1cccc(CC(=O)Nc2ccc(CCCCc3nnc(NC(=O)CCCC)s3)nn2)c1	–	> 20	–
CCCCCOc1cccc(CC(=O)Nc2ccc(CCCCc3nnc(NC(=O)C4CC4)s3)nn2)c1	4.03	0.036	solubility at 72 h [3]: 0.52 µg/mL (≈ 0.995 µM)

Compound	IC50 [1] [µM]	IC50 [2] [µM]	further results
CCCCOc1cccc(CC(=O)Nc2ccc(OC3CC4CCC(C3)N4c3nnc(NC(=O)CCCC)s3)nn2)c1 (stereo not given)	16.9	> 20	–
CCCCOc1cccc(CC(=O)Nc2ccc(CCCCc3nnc(NC(=O)CCCC)s3)nn2)c1	0.38	0.027	half-life [4]: 54.6 min; microsomal CLint [5]: 63.5 µL/min/mg
CCCCOc1cccc(CC(=O)Nc2ccc(CCCCc3nnc(NC(=O)C4CC4)s3)nn2)c1	2.64	0.16	solubility at 72 h [3]: 0.71 µg/mL (≈ 1.4 µM)
CCCCC(=O)Nc1nnc(CCCCc2ccc(NC(=O)Cc3cccc(OCCC)c3)nn2)s1	0.82	0.13	–
C=CCCC(=O)Nc1nnc(CCCCc2ccc(NC(=O)Cc3cccc(O)c3)nn2)s1	2.63	0.53	–
C=CCCC(=O)Nc1nnc(CCCCc2ccc(NC(=O)Cc3cccc(OC(=O)CCC=C)c3)nn2)s1	7.9	0.14	–
C#CCOc1cccc(CC(=O)Nc2ccc(CCCCc3nnc(NC(=O)CCCC)s3)nn2)c1	> 10	1.05	–
CCCCCCNc1cccc(CC(=O)Nc2ccc(CCCCc3nnc(NC(=O)CCCC)s3)nn2)c1	–	> 20	–
C=CCCOc1cccc(CC(=O)Nc2nnc(CCCCc3ccc(NC(=O)CCC=C)nn3)s2)c1	1.52	0.24	–
C=CCCCCOc1cccc(CC(=O)Nc2ccc(CCCCc3nnc(NC(=O)CCC=C)s3)nn2)c1	0.31	0.0251	half-life [4]: 25.1 min; solubility at 72 h [3]: 3.6 µg/mL (≈ 6.56 µM); microsomal CLint [5]: 138 µL/min/mg; ΔTm [6]: 13.9 °C
C=CCCOc1cccc(CC(=O)Nc2ccc(CCCCc3nnc(NC(=O)CCC=C)s3)nn2)c1	1.37	0.087	–
C=CCCCCOc1cccc(CC(=O)Nc2ccc(CCCCc3nnc(N)s3)nn2)c1	1.09	0.28	–
CCCCCCOc1cccc(CC(=O)Nc2ccc(CCCCc3nnc(NC(=O)CCCC)s3)nn2)c1	0.38	0.019	half-life [4]: 26 min; microsomal CLint [5]: 134 µL/min/mg
CCCCC(=O)Nc1nnc(CCCCc2ccc(NC(=O)Cc3cccc(OCC)c3)nn2)s1	8.54	0.22	–
O=C(Cc1ccccc1)Nc1nnc(CCSCCc2nnc(NC(=O)Cc3ccccc3)s2)s1	–	–	inhibition in vivo at 100 mg/kg [7]: 31.3%
C=CCCOc1cccc(CC(=O)Nc2ccc(N3CCC(Nc4nnc(NC(=O)CCC=C)s4)CC3)nn2)c1	0.43	0.019	half-life [4]: 68.6 min; microsomal CLint [5]: 50.2 µL/min/mg
C#CCCC(=O)Nc1nnc(CCCCc2ccc(NC(=O)Cc3cccc(O)c3)nn2)s1	3.44	0.58	–
CCCCC(=O)Nc1nnc(CCCCc2ccc(NC(=O)Cc3cccc(O)c3)nn2)s1	6.82	0.17	–

Source: ChEMBL document CHEMBL5352475, “Design, synthesis, and biological evaluation of novel glutaminase 1 allosteric inhibitors with an alkane chain tail group” (Eur J Med Chem, 2023)
